Results: US6375961B1, “Cosmetic skin care compositions containing cumic alcohol” (Unilever Home & Personal Care (USA), division of Conopoco, …, priority 1999, dated 2002)

Experiments:
Format in all cases: cell-based
[1] = test system: human keratinocytes; assay: Glucose uptake assay (3H 2-deoxy-glucose) in keratinocytes
Experimental: Normal human keratinocytes, isolated from neonatal foreskin by trypsin treatment, were grown in Dulbecco's Modified Eagles Medium (DMEM, Life Technologies. Grand Island, New York) with 10% fetal bovine serum in the 10 presence of irradiated mouse fibroblasts for establishing dividing keratinocyte colonies. Cells were incubated until their second passage and stored at −70 ° C. for future use. All incubations took place at 37 ° C. with 5% CO2. Frozen second passage keratinocytes were thawed and plated in T−175 flasks (Corning. Corning, N.Y.) with DMEM and grown for five days. After reaching 80% confluence, they were trypsinized and seeded into 6-well plates containing keratinocyte growth medium (KGM, Clonetics, San Diego, Calif.) with 0.15 mM calcium. Keratinocytes were plated in KGM medium at either 0.5 or 1 million cells/plate in six well plates and incuoated for 4 days. The medium was then aspirated, and the wells were rinsed twice with Phosphate Buffered Saline (PBS), then the plates were incubated (1 mL/well) for 24 hours. The medium was replaced with fresh KBM, 10 ul of corn oil containing cumic alcohol at various concentrations were added and cells were allowed to incubate (for 4 hours at 37C) before 2 μCi of ^3H 2-deoxy-glucose (Amersham, UK) were added to each well. Samples were then incubated for one hour. The medium was aspirated and wells were rinsed three times with PBS before the addition of 500 μL of 0.1N NaOH/well. After 10 minutes of agitation on a shaker, a 25 μL aliquot was removed for protein analysis, and 200 μL were transferred to a scintillation vial containing 5mL Scintillation cocktail (Scintiverse) and counting was performed on a Beckman counter, ^3H-Glucose uptake results were expressed as CPM/μg protein. Concentrations used in the examples below are of cumic alcohol in a corn oil droplet. The in vitro concentration may not be relevant to in vivo concentration because there is partitioning between oil and culture medium and the medium concentration of the active is not The oil droplet concentration of the active. For the cumic alcohol to elicit its effect on the cultured cells, it must diffuse out of the corn oil into the culture medium where it is then accessible to the cells. The cumic alcohol concentration in the culture medium is therefore considerably less than the concentration in the corn oil droplet.

[2] = test system: human keratinocytes; assay: Lipid analysis (ceramides, TLC densitometry) in keratinocytes
[3] = test system: human keratinocytes; assay: Transglutaminase (TG-1) assay in keratinocytes
Experimental: Normal human keratinocytes, isolated from neonatal foreskin by trypsin treatment, were grown in Dulbecco's Modified Eagles Medium (DMEM, Life Technologies. Grand Island, New York) with 10% fetal bovine serum in the 10 presence of irradiated mouse fibroblasts for establishing dividing keratinocyte colonies. Cells were incubated until their second passage and stored at −70 ° C. for future use. All incubations took place at 37 ° C. with 5% CO2. Frozen second passage keratinocytes were thawed and plated in T−175 flasks (Corning. Corning, N.Y.) with DMEM and grown for five days. After reaching 80% confluence, they were trypsinized and seeded into 6-well plates containing keratinocyte growth medium (KGM, Clonetics, San Diego, Calif.) with 0.15 mM calcium. Keratinocytes were placed in KGM (2 ml per well) at 0.2 million cells/plate in 6-well plates and grown for four or five days until the cells reached approximately 20% confluence. […] One set of triplicate wells was left untreated to serve as control. After three days of incubation, cells were washed thoroughly with phosphate buffered saline (PBS, 10 mM sodium phosphate, 138 mM sodium choride, 2.7 mM potassium chloride, pH 7.4) and placed at −70 °C. for 2 hours. Cells were then thawed for two hours. The DNA content of cells was quantified by using the DNA-binding fluorophore, bis-benzimidazole (Hoechst 33258) and measuring the specific fluoroescence of the DNA-bound fluorophore (360 nm excitation, 450 nm emission). Cellular TG-1 levels were determined by using a transglutaminase-1 (TG-1) specific monoclonal antibody as the primary antibody (BC1, Amersham, UK) and a peroxidase labeled rabbit antimouse IgG as the secondary antibody (Amersham, UK). The plates were blocked at room temperature with 5% nonfat milk in Tris-buffered saline (TBS, 10 mM Tris, 150 mM NaCL, pH 8.0) for one hour followed by two hours incubation with the primary antibody (1:4000 dilution) in 1% milk/TBS at room temperature. After rinsing the plates three times with 1% milk/TDS containing […] Tween 20 (Bio-Rad, Hercules, Calif.), the plates were incubated with a 1:4000 dilution of the secondary antibody at room temperature for two hours. The plates were then rinsed three times with 1% milk/0.05% Tween 20/TBS and three times with PBS. Color was developed by incubation with o-phenylene-diamine (Sigma, St. Louis. Mo.) and hydrogen peroxide (Sigma) dissolved in a 1:1 mixture of 0.2 M dibasic sodium phosphate (Sigma) and 0.1 M citric acid at pH 5.0(Sigma). Solutions were transferred to 4 ml plastic cuvets (Fisher Scientific, Pittsburgh Pa.) and the absorbance was read at 492 nm on an Ultraspec 3000 spectrophotometer (Pharmacia, Piscataway N.J.) and TG-1 levels were expressed as absorbence/DNA fluorescence. Concentrations used in the examples below are of cumic alcohol in a corn oil droplet. The in vitro concentration may not be relevant to in vivo concentration because there is partitioning between oil and culture medium and the medium concentration of the active is not The oil droplet concentration of the active. For the cumic alcohol to elicit its effect on the cultured cells, it must diffuse out of the corn oil into the culture medium where it is then accessible to the cells. The cumic alcohol concentration in the culture medium is therefore considerably less than the concentration in the corn oil droplet.

[4] = test system: human keratinocytes; assay: Ascorbate uptake assay (14C-ascorbic acid) in keratinocytes
Experimental: Normal human keratinocytes, isolated from neonatal foreskin by trypsin treatment, were grown in Dulbecco's Modified Eagles Medium (DMEM, Life Technologies. Grand Island, New York) with 10% fetal bovine serum in the 10 presence of irradiated mouse fibroblasts for establishing dividing keratinocyte colonies. Cells were incubated until their second passage and stored at -70 ° C. for future use. All incubations took place at 37 ° C. with 5% CO2. Frozen second passage keratinocytes were thawed and plated in T-175 flasks (Corning. Corning, N.Y.) with DMEM and grown for five days. After reaching 80% confluence, they were trypsinized and seeded into 6-well plates containing keratinocyte growth medium (KGM, Clonetics, San Diego, Calif.) with 0.15 mM calcium. For this experiment, third passage keratinocytes were plated into a KGM medium (Clonetics, Calif.) containing 0.15 mM calcium. […] Cells were then switched into fresh KBM and were treated with 5% cumic alcohol administered in corn oil (dosed 10 μl corn oil+active at indicated concentration/2 ml media). After 4 hours of incubation, 0.1 μCi/ml of L-^14C-1-ascorbic acid (Amersham, UK) and 50 units of ascorbic oxidase (Sigma) were added to each well and further incubated for 1 hour. The medium was aspirated and wells were rinsed 3 times with PBS before addition of 500 μl of 0.1N NaOH/well. After 10 minutes of agitation on shaker, 25 μL aliquot was removed for protein analysis, and 200 μl were transferred to scintillation vials containing 5 ml of […]. The counting was performed on a Beckman counter (model LS 5801). Ascorbic acid uptake results were expressed as CPM /μg protein. Concentrations used in the examples below are of cumic alcohol in a corn oil droplet. The in vitro concentration may not be relevant to in vivo concentration because there is partitioning between oil and culture medium and the medium concentration of the active is not The oil droplet concentration of the active. […]

[5] = Example 2, Experiment 1, cumic alcohol 2.5% in corn oil
[6] = Example 2, Experiment 1, cumic alcohol 5% in corn oil
[7] = Example 2, Experiment 2, cumic alcohol 2.5% in corn oil
[8] = Example 2, cumic alcohol at 2.5 and 5%
[9] = Example 4, inactivity at lower concentrations

## CC(C)c1ccc(CO)cc1 [CUMIC ALCOHOL, p-isopropylbenzyl alcohol]
[1]; cumic alcohol 1% in corn oil droplet
  glucose uptake % OF CONTROL: 107%
[1]; cumic alcohol 2.5% in corn oil droplet
  glucose uptake % OF CONTROL: 185%
[1]; cumic alcohol 5% in corn oil droplet
  glucose uptake % OF CONTROL: 206%
[1]; cumic alcohol 5% in corn oil droplet (10 ul), 4 h preincubation, 1 h uptake
  glucose uptake CPM/ug PROTEIN: 40.67 CPM/ug PROTEIN
[2]; [5]
  ceramides % of CONTROL: 67%
[2]; [6]
  ceramides % of CONTROL: 156%
[2]; [7]
  ceramides % of CONTROL: 166%
[2]; Example 2, Experiment 2, cumic alcohol 5% in corn oil
  ceramides % of CONTROL: 185%
[2]; [8]
  expression of ceramides in comparison to untreated control cells (in words): increased expression
[2]; [9]
  ceramide production (in words): significant increase
[3]; [5]
  TG-1 % of CONTROL: 117%
[3]; [6]
  TG-1 % of CONTROL: 180%
[3]; [7]
  TG-1 % of CONTROL: 145%
[3]; [8]
  expression of transglutaminase-1 in comparison to untreated control cells (in words): increased expression
[3]; Example 4, cumic alcohol 1% in corn oil
  TG-1 % of CONTROL: 127%
[3]; Example 4, cumic alcohol 2.5% in corn oil
  TG-1 % of CONTROL: 174%
[3]; Example 4, cumic alcohol 5% in corn oil
  TG-1 % of CONTROL: 205%
[3]; [9]
  transglutaminase-1 expression (in words): significant increase
[4]; cumic alcohol 5% in corn oil
  ascorbate uptake % of CONTROL: 129%
[4]; cumic alcohol 5% in corn oil (10 ul/2 ml media), 4 h preincubation, 1 h uptake
  ascorbate uptake CPM/WELL: 17235 +− CPM/WELL
[4]; cumic alcohol at 5% in corn oil
  uptake of ascorbate in comparison to untreated control cells (in words): significantly increased uptake
